The results in this text go back to the NIST ThermoML archive (doi:10.1016/j.jct.2016.03.025).

By refractive index is commonly meant a measure of how strongly the sample bends light. As usually defined, the mass density is the mass of a sample divided by its volume.

± gives the expanded uncertainty stated by the source.

The nature of series [1]: refractive index (Na D-line) (dimensionless). The settings on record: 293.15 K; 101.33 kPa; Liquid; Standard Abbe refractometry.
The conditions of series [2]: 293.15 K; 101.33 kPa; Liquid; Vibrating tube method.
The nature of series [3]: refractive index (Na D-line) (dimensionless); wn = mass fraction of the nth substance listed. The settings on record: 293.15 K; 101.3 kPa; Liquid; Standard Abbe refractometry; w1 = 0.85.
Series [4] in a line: wn = mass fraction of the nth substance listed. The conditions noted are these: 293.15 K; 101.3 kPa; Liquid; Vibrating tube method; w1 = 0.85.

For the molecule `CC(=O)OC1CCCCC1` [cyclohexyl ethanoate], the refractive index in series [1] is given as 1.4425 ± 0.0011. Further, the mass density in series [2] was found to be 970.1 ± 1.2 kg/m3.

For `CCCCCCOC(C)=O` [hexyl ethanoate], the refractive index in series [1] is 1.4096 ± 0.0011. Further, the mass density in series [2] was found to be 873.3 ± 1.2 kg/m3.

Turning to `O=P(O)(O)O` [phosphoric acid] + O, in series [3], the refractive index is given as 1.4345 ± 0.001. The mass density in series [4] is listed as 1682.8 ± 1 kg/m3.

Turning to `O` [water], the refractive index in series [1] amounted to 1.333 ± 0.001. In series [2], the mass density is listed as 998.3 ± 1 kg/m3.
